The results in this text go back to ChEMBL document CHEMBL1135873, “Neuroprotection against ischemic brain injury conferred by a novel nitrate ester” (Bioorg Med Chem Lett, 2002).

Molecules are shown by their SMILES.

The species named for the experiment is Rattus norvegicus. Kind of experiment: Effective concentration for relaxation of isolated rat aortic strips, submaximally contracted with phenylephrine at 0.1 uM was determined. The settings on record: Aorta. The experiment is classed as functional.

For orientation: EC50 means the concentration needed to bring the measured effect to its halfway point. The low end stands for higher potency in that assay, the high end for lower potency in that assay. Take `O=[N+]([O-])OCC(CO[N+](=O)[O-])O[N+](=O)[O-]` [NITROGLYCERIN]: it took 1.9 µM to reach a half-maximal effect (EC50). This counts as single-digit micromolar.
